From article PMC8298602, “14-3-3-protein regulates Nedd4-2 by modulating interactions between HECT and WW domains” (Communications Biology, 2021)
Non-standard residues stand in square brackets, D forms with d. Residues, ends and D or L forms follow the SMILES beside them. *: point of attachment. FITC = O=C1OC2(c3ccc(O)cc3Oc3cc(O)ccc32)c2ccc(NC(=S)*)cc21; pT = C[C@@H](OP(=O)(O)O)[C@H](N)C(=O)O; pS = N[C@@H](COP(=O)(O)O)C(=O)O

Legend:
Assay type in all cases: binding
Settings in all cases: 14-3-3 titrated 80 to 0.003418, three replicates
14-3-3σ = target: T1, 14-3-3σ (Homo sapiens, UniProt P31947); test: fluorescence polarization (FP) with FITC-labeled phosphopeptides, 14-3-3σ
T1 sequence (P31947 1-248): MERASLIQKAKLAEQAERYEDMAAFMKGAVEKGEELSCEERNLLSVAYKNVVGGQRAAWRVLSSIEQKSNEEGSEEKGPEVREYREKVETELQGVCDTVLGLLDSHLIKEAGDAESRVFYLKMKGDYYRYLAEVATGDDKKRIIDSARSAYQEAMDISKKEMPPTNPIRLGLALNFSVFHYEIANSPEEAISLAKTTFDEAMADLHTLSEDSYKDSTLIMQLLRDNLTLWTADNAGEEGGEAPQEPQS
Method: (§1) Fig. 4 14-3-3 isoform binding specificity of Nedd4-2 phosphomotifs. Binding of FITC-labeled phosphopeptides with 14-3-3 binding motifs of Nedd4-2 (pSer^342, pThr^367 or pSer^448) to all human 14-3-3 isoforms was characterized by FP titrations. The binding affinities of these peptides were determined by fitting FP data to a one-site binding model. The corresponding sequences of these peptides are shown at the top. Background polarization was subtracted from all values. Results are expressed as mean ± SD (n = 3). Error bars are not visible if they are smaller than the size of the symbol.
(§2) The FP assay was performed using a CLARIOstar microplate reader (BMG Labtech, […]) on 384-well black low-volume flat-bottom plates (Corning, New York, USA) in a buffer containing 10 mM HEPES (pH 7.4), 150 mM NaCl, 0.1% (v/v) Tween 20 and 0.1% (w/v) BSA. […] The excitation and emission wavelengths were 482 nm and 530 nm, respectively. The KD values were determined as the mean of three independent measurements using GraphPad Prism version 8.0.1 for Windows, GraphPad Software, La Jolla California USA, www.graphpad.com.
(§3) Results from the FP assay (Fig. 4) and immunoblot (Supplementary Fig. S1) are represented as means ± SD from three replicates as indicated in the figure legend. Statistical analysis for the data from immunoblot were performed using Graph-Pad Prism 8.4. Student’s t-test was used for comparison of relative changes of samples with and without 14-3-3η at selected timepoints (ns, non-significant P > 0.05; *, P < 0.05).

14-3-3ζ = target: T2, 14-3-3ζ (Homo sapiens, UniProt P63104); test: fluorescence polarization (FP) with FITC-labeled phosphopeptides, 14-3-3ζ
T2 sequence (P63104 1-245): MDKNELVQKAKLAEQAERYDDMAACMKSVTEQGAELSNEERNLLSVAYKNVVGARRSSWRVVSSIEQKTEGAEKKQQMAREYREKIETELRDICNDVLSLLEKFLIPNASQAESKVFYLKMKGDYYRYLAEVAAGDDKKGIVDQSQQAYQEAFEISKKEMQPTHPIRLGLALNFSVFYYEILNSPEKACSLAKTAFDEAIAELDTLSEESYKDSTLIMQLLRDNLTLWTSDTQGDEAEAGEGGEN
Method: as §1, §2, §3

14-3-3ε = target: T3, 14-3-3ε (Homo sapiens, UniProt P62258); test: fluorescence polarization (FP) with FITC-labeled phosphopeptides, 14-3-3ε
T3 sequence (P62258 1-255): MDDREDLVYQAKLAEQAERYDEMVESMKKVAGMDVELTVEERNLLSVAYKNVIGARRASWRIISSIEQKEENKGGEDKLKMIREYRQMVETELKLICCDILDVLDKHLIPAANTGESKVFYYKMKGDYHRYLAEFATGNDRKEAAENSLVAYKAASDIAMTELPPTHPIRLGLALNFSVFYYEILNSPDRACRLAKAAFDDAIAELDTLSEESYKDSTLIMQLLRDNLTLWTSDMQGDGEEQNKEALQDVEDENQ
Method: as §1, §2, §3

14-3-3τ = target: T4, 14-3-3τ (Homo sapiens, UniProt P27348); test: fluorescence polarization (FP) with FITC-labeled phosphopeptides, 14-3-3τ
T4 sequence (P27348 1-245): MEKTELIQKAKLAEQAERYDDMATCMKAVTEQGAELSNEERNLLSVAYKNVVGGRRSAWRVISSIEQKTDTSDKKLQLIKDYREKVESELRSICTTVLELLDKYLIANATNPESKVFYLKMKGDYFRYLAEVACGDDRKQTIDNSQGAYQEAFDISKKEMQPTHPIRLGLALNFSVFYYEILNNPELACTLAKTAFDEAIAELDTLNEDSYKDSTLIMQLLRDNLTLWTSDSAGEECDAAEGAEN
Method: as §1, §2, §3

14-3-3γ = target: T5, 14-3-3γ (Homo sapiens, UniProt P61981); test: fluorescence polarization (FP) with FITC-labeled phosphopeptides, 14-3-3γ
T5 sequence (P61981 1-247): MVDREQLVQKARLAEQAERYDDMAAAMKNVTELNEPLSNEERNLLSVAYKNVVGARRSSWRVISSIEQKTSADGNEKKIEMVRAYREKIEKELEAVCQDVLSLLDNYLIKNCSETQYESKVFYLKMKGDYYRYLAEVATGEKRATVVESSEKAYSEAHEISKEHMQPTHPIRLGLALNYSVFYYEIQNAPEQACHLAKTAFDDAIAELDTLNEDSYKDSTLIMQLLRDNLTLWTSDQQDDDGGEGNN
Method: as §1, §2, §3

14-3-3η = target: T6, 14-3-3η (Homo sapiens, UniProt Q04917); test: fluorescence polarization (FP) with FITC-labeled phosphopeptides, 14-3-3η
T6 sequence (Q04917 1-246): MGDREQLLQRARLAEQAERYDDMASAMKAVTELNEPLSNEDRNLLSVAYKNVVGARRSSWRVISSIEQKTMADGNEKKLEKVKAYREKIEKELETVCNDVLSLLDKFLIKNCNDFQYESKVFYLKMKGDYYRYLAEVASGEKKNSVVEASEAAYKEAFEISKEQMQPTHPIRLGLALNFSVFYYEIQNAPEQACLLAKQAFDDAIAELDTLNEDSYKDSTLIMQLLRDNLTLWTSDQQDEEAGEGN
Method: as §1, §2, §3

14-3-3β = target: T7, 14-3-3β (Homo sapiens, UniProt P31946); test: fluorescence polarization (FP) with FITC-labeled phosphopeptides, 14-3-3β
T7 sequence (P31946 1-246): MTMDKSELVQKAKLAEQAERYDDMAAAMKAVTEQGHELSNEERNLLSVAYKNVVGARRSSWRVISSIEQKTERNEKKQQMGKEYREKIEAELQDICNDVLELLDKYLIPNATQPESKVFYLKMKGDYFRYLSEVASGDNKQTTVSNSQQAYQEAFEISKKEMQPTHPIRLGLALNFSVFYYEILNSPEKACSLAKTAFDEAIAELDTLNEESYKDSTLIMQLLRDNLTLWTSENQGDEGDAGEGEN
Method: as §1, §2, §3

Row | SMILES | Bmax (One site -- Specific binding, best-fit value) (14-3-3σ) | Bmax (One site -- Specific binding, best-fit value) (14-3-3ζ) | Bmax (One site -- Specific binding, best-fit value) (14-3-3ε) | Bmax (One site -- Specific binding, best-fit value) (14-3-3τ) | Bmax (One site -- Specific binding, best-fit value) (14-3-3γ) | Bmax (One site -- Specific binding, best-fit value) (14-3-3η) | Bmax (One site -- Specific binding, best-fit value) (14-3-3β)
1 | CC(C)[C@H](NC(=O)[C@@H](NC(=O)[C@H](CO)NC(=O)[C@H](CO)NC(=O)[C@H](CCCNC(=N)N)NC(=O)[C@H](C)NC(=S)Nc1ccc2c(c1)C(=O)OC21c2ccc(O)cc2Oc2cc(O)ccc21)[C@@H](C)OP(=O)(O)O)C(=O)N[C@H](C(=O)NCC(=O)NCC(=O)N[C@@H](CCC(=O)O)C(=O)O)[C@@H](C)O [Nedd4-2 peptide pT367] ({FITC}-ARSS[pT]VTGGE-OH; C-terminus assumed) | 0.1205 | 1.002 | 0.3092 | 0.7863 | 0.9894 | 0.8265 | 0.9561
2 | CC(C)C[C@H](NC(=O)[C@H](CO)NC(=O)[C@H](CCCNC(=N)N)NC(=O)[C@@H]1CCCN1C(=S)Nc1ccc2c(c1)C(=O)OC21c2ccc(O)cc2Oc2cc(O)ccc21)C(=O)N[C@@H](COP(=O)(O)O)C(=O)N[C@@H](CO)C(=O)N1CCC[C@H]1C(=O)N[C@H](C(=O)N[C@H](C(=O)N[C@H](C(=O)O)[C@@H](C)O)C(C)C)[C@@H](C)O [Nedd4-2 peptide pS448] ({FITC}-PRSL[pS]SPTVT-OH; C-terminus assumed) | 0.7456 | 0.9954 | 0.7529 | 0.8496 | 0.9424 | 0.8968 | 1
3 | CC(C)C[C@H](NC(=S)Nc1ccc2c(c1)C(=O)OC21c2ccc(O)cc2Oc2cc(O)ccc21)C(=O)N[C@@H](CCCNC(=N)N)C(=O)N[C@@H](CO)C(=O)N[C@@H](CS)C(=O)N[C@@H](COP(=O)(O)O)C(=O)N[C@H](C(=O)N[C@H](C(=O)N[C@@H](CC(=O)O)C(=O)N[C@@H](C)C(=O)N[C@H](C(=O)O)C(C)C)[C@@H](C)O)C(C)C [Nedd4-2 peptide pS342] ({FITC}-LRSC[pS]VTDAV-OH; C-terminus assumed) | 0.9999 | 0.1453 | 0.261 | 0.1186 | 0.2226 | 0.164 | 0.1665
